The target in experiment [1] is Kappa-type opioid receptor (Cavia porcellus, UniProt P41144). Description: Displacement of [3H]-U69593 from KOR in guinea pig brain membranes measured by competitive radioligand receptor binding assay. It is filed as cell membranes, Membrane. (In a radioligand displacement assay an active substance lowers the binding of a labelled ligand.)
The target in experiment [2] is Sigma non-opioid intracellular receptor 1 (Cavia porcellus, UniProt Q60492). Description: Displacement of [3H]-(+)-pentazocine from sigma1 receptor in guinea pig brain membrane measured by competitive radioligand receptor binding assay. Format: cell membranes.
For experiment [3], the target named is Delta-type opioid receptor (Rattus norvegicus, UniProt P33533). Description: Displacement of [3H]-DPDPE from DOR in rat brain membranes measured by competitive radioligand receptor binding assay. Format: cell membranes, Membrane.
Experiment [4] has as its target T1, Sigma intracellular receptor 2 (Rattus norvegicus, UniProt Q5U3Y7).
T1 sequence (Q5U3Y7 whole entry): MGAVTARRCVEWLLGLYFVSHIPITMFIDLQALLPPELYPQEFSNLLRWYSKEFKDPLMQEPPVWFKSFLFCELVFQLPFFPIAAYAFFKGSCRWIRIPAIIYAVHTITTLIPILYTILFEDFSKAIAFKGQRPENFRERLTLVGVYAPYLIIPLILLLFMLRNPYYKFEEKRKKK
Description: Displacement of [3H]-di-o-tolylguanidine from sigma2 receptor in rat liver membrane measured by competitive radioligand receptor binding assay. Format: cell membranes.

Another experiment addresses Mu-type opioid receptor (Cavia porcellus, UniProt P97266). Description: Displacement of [3H]-DAMGO from MOR in guinea pig brain membranes measured by competitive radioligand receptor binding assay. It is filed as cell membranes, Membrane.

For orientation: Ki means a measure of affinity in units of concentration, obtained from inhibition or displacement. Read a low Ki as a stronger hold on the target. Regarding `O=C(Cc1ccc(Cl)c(Cl)c1)N1CCCCC1CN1CCCC1` (stereo not drawn), the Ki in experiment [1] came out at 0.24 nM.

`O=C(Cc1ccc(Cl)c(Cl)c1)N1CC[C@H]2C[C@@H](N3CCCC3)[C@@H]1C2`: the Ki in experiment [2] is 56 nM; in experiment [3], 542 nM; in experiment [1] it was 7 nM; in experiment [4], 534 nM.

`O=C(Cc1ccc(Cl)c(Cl)c1)N1CCC2CC1[C@H](N1CCCC1)C2` (stereo partly drawn) showed a Ki in experiment [1] of 7 nM.

`CN(C)[C@@H]1C[C@@H]2CCN(C(=O)Cc3ccc(Cl)c(Cl)c3)[C@H]1C2`: the Ki in experiment [2] was 292 nM; at Mu-type opioid receptor, more than 1000 nM; in experiment [1] it was 13 nM; in experiment [4] it was 811 nM.

As to `O=C(Cc1ccc(Cl)c(Cl)c1)N1CC[C@H]2C[C@@H]1[C@@H](N1CCCC1)C2`, the results for the Ki in experiment [2], in experiment [1] and in experiment [4] were 10 nM, 1750 nM and 171 nM, respectively.

`O=C(Cc1ccc(Cl)c(Cl)c1)N1CC[C@@H]2CC[C@H](N3CCCC3)[C@H]1C2` gave an inhibitory constant (Ki) in experiment [4] of 487 nM.

As to `O=C(Cc1ccc(Cl)c(Cl)c1)N1CCN2CC[C@@H](N3CCCC3)C1C2` (stereo partly drawn), the affinity in experiment [1], expressed as Ki, was 73 nM.

With `O=C(Cc1ccc(Cl)c(Cl)c1)N1CCC2CC1[C@@H](N1CCCC1)C2` (stereo partly drawn), the inhibition constant Ki in experiment [1] amounted to 862 nM.

Regarding `O=C(Cc1ccc(Cl)c(Cl)c1)N1CC[C@H]2CC[C@@H](N3CCCC3)[C@@H]1C2`, the affinity in experiment [4] corresponds to a Ki of 154 nM.

Turning to `CN(C)[C@H]1C[C@H]2CCN(C(=O)Cc3ccc(Cl)c(Cl)c3)[C@@H]1C2`, the inhibitory constant (Ki) in experiment [2] came out at 17 nM; in experiment [1], 531 nM; in experiment [4], 213 nM.

As for `O=C(Cc1ccc(Cl)c(Cl)c1)N1CCN2CC[C@H](N3CCCC3)C1C2` (stereo partly drawn), the inhibition constant (Ki) in experiment [1] is more than 1000 nM.

In experiment [1], `COC(=O)N1CCN(C(=O)Cc2ccc(Cl)c(Cl)c2)[C@H](CN2CCCC2)C1` registered a Ki of 0.46 nM.

For `CN(C)[C@@H]1CCC2CCN(C(=O)Cc3ccc(Cl)c(Cl)c3)C1C2` (mixture of isomers), the Ki in experiment [4] came out at 608 nM.

For the origin of these results see ChEMBL document CHEMBL5154699 (Eur J Med Chem, 2022).
